Data set [1] can be described thus: pharmacokinetics of oral tolterodine (background data). As to conditions: extensive metabolisers, EMs.
For data set [2] the following is noted: poor metabolizer; cited from earlier work.
Data set [3] in a line: partition coefficient between n-octanol and phosphate buffer. As to conditions: n-octanol / phosphate buffer at pH 7.32.
A short description of data set [4]: solubility in water. Conditions: room temperature.
Data set [5] is described as follows: In vitro permeation across synthetic membranes and dermatomed pig skin from solutions of tolterodine base (Franz diffusion cells, Example 2). It counts as in vitro ADME. As to the method: In vitro skin permeation results were obtained from studies on pig or human skin using Franz diffusion cells.
Full thickness pig and human skin (used in Example 1) or 765 μm skin (used in all other Examples) was used. The 765 μm skin was isolated by using a dermatome (Zimmer Electric Dermatome 8821, Zimmer Chirurgie).
The skin was mounted in the diffusion cells with an available diffusion area of 1.8 cm^2. The inner side of the skin was exposed to 12.1 ml receptor phase (0.05M phosphate buffer, pH 7.4) at 37±1° C. Samples were withdrawn periodically and measured by HPLC. Fluxes (>g/cm^2/h) were obtained by linear regression of data at steady state.
In vitro permeation studies across synthetic membranes and dermatomed pig skin from solutions of tolterodine base, imitating the reservoir type transdermal device. Enhancer was added to one of the solutions.
Membranes of the following types were used: CoTran 9702 (microporous polyethylene film) with 9% vinyl acetate (VA) and CoTran 9728 with 19% vinyl acetate. The solutions 3 and 4 were both applied on the surface of the two mentioned membranes while solution 5 only was applied on the surface of the CoTran 9702 membrane with 9% vinyl acetate. The membranes were placed on top of dermatomed pigskin. The inner sides of the pigskin were exposed to 12.1 ml receptor solution (0.05M phosphate pH 7.4 equilibrated to 37±1° C.).

Data set [6] concerns guinea pigs. The data set is described as follows: Delayed contact hypersensitivity, Guinea Pig Maximization Test. The format is in vivo. Conditions: 1% intradermal induction, 25% topical induction and challenge, in sesame oil. An excerpt:
The delayed contact hypersensitivity test used was the Guinea Pig Maximization Test described by B. Magnusson and A. M. Kligman.
A 1% (w/w) test article concentration in sesame oil was used for the intradermal induction. A 25% (w/w) test article concentration in sesame oil was used for the topical induction and for the challenge application.

With “N,N-dilso-propyl-3′-(2-hydroxy-5-methylphenyl)-3-phenylpropanamine [Tolterodine]”, the half-life entry in data set [1] is “about 2 hours”. Besides, the “systemic clearance (CL)” value in data set [2] is “about 10 L/h”. For the same substance, the “partition coefficient (Log P)” value in data set [3] stood at 1.83. Moreover, the solubility in water entry in data set [4] is reported as “about 11 mg/ml”. The flux entry in data set [5] (1 or 3% HPC/ethanol solution, 9% VA CoTran membrane on dermatomed pigskin) is “about 4 μg/cm^2/h”; in data set [5] (1 or 3% HPC/ethanol solution, 19% VA CoTran membrane on dermatomed pigskin), “about 11 μg/cm^2/h”; in data set [5] (enhancer (methyl laurate:ethanol 1:9), 9% VA CoTran membrane on dermatomed pigskin) it was 9 μg/cm^2/h.
As to tolterodine L-tartrate, the “delayed contact hypersensitivity reaction” value in data set [6] is recorded as “did not provoke a delayed contact hypersensitivity reaction”.

Source of the values: US6517864B1 (Pharmacia AB, priority 1998, dated 2003).
